Assay results as given in PMC3877196 (Toxicon : official journal of the International Society on …, 2013).
*1 amine or outer side, *2 acyl side, *3 side chain or, on linkers, in order; H or OH if unused. Where a SMILES comes first, the peptide text is derived from it. CO = O=C([*:1])[*:2]

Target: T1, IXOSP (Ixodes scapularis salivary serine protease) (Ixodes scapularis, UniProt Q4PMM2)
T1 sequence (Q4PMM2 51-273): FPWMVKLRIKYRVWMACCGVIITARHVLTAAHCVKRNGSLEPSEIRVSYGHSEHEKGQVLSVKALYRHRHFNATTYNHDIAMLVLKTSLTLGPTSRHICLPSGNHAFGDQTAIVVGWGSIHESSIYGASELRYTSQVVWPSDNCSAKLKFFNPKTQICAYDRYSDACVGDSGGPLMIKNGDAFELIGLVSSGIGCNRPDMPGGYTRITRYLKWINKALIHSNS
Test: amidolytic assay, pNA release at […] nm
Assay type: biochemical
Details: read-out: Inhibition of activity (% ± SD)

SMILES: CC(C)[C@H](NC(=O)[C@H](CCCNC(=N)N)NC(=O)N[C@@H](Cc1ccccc1)C(=O)O)C(=O)N[C@H](C=O)CCCNC(=N)N [Antipain] ({Phe-CO}-Arg-Val-Arg-aldehyde)
- inhibition at 30 µM: 55 ± 4%
